US9856224B2, “Stable sodium channel blockers” (PARION SCIENCES, INC., priority 2014, dated 2018)

Target: T1, airway epithelial sodium currents (epithelial sodium channel, ENaC) (Canis lupus familiaris, UniProt A0A8I3MKE6+A0A8I3Q679+Q95165)
T1 construct: endogenous in cells; host or cells: primary canine airway epithelial cells cultured at air-liquid interface, mounted in Ussing chambers
T1 sequence (A0A8I3Q679 1-649): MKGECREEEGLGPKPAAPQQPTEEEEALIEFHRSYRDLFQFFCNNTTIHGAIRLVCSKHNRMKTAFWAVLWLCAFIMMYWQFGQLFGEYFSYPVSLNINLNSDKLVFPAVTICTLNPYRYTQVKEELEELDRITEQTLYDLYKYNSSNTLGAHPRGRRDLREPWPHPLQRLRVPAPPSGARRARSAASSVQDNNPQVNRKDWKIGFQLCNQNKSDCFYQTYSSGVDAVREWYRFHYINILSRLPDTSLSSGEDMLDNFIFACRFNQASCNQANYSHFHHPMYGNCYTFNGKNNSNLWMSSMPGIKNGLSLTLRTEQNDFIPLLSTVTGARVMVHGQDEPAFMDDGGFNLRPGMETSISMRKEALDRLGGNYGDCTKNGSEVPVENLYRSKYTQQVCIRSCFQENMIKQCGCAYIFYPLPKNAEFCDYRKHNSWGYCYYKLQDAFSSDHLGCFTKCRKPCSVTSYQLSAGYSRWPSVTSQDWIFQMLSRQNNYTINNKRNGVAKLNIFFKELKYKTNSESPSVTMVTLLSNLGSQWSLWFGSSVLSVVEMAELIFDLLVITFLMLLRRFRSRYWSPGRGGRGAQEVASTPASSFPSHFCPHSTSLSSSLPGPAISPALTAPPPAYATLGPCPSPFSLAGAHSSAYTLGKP
T1 sequence (Q95165 1-641): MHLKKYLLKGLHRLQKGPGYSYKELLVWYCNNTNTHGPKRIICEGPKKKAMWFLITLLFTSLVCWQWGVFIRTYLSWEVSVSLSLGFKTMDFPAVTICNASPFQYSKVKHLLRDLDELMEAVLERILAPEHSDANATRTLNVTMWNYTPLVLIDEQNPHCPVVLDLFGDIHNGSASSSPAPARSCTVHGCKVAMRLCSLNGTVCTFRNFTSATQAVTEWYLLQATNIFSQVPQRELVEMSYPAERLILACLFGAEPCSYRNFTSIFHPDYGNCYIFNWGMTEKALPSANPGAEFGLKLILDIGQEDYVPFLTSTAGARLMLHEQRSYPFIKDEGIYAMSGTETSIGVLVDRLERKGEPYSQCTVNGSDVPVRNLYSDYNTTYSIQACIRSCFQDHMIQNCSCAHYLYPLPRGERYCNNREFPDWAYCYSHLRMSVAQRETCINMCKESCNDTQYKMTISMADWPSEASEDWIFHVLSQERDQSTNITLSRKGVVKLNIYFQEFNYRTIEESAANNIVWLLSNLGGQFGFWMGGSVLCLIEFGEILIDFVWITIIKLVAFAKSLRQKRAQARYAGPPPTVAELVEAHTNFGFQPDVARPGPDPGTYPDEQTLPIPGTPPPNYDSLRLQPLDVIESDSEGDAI
T1 sequence (A0A8I3MKE6 1-646): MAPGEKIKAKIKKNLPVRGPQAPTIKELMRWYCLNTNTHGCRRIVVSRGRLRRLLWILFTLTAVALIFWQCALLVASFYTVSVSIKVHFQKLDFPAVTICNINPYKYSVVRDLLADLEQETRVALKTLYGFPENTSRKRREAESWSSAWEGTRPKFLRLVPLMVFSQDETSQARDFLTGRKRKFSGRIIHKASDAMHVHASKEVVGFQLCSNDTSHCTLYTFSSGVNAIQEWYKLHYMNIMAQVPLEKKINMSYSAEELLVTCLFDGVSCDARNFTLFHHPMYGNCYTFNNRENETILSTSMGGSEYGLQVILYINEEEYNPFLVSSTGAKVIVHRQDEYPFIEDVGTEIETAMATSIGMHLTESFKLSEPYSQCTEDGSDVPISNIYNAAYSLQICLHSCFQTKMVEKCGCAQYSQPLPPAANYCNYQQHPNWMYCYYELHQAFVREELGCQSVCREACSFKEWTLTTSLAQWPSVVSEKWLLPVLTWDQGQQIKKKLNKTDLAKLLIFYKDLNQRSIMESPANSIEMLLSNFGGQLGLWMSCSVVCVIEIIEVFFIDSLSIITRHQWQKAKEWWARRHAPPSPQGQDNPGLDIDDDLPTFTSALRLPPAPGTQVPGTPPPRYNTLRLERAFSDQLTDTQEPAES
Assay: In vitro measure of sodium channel blocking activity (short circuit current, Ussing chambers)
Format: cell-based
Conditions: freshly excised cells from canine airways; lumenal drug addition; short circuit current (ISC)
Protocol: One assay used to assess mechanism of action and/or potency of the compounds of the present invention involves the determination of lumenal drug inhibition of airway epithelial sodium currents measured under short circuit current (ISC) using airway epithelial monolayers mounted in Ussing chambers. Cells obtained from freshly excised human, dog, sheep or rodent airways are seeded onto porous 0.4 micron Snapwell™ Inserts (CoStar), cultured at air-liquid interface (ALI) conditions in hormonally defined media, and assayed for sodium transport activity (ISC) while bathed in Krebs Bicarbonate Ringer (KBR) in Using chambers. All test drug additions are to the lumenal bath with half-log dose addition protocols (from 1×10^−11 M to 3×10^−5 M), and the cumulative change in ISC (inhibition) recorded. […] After the maximal concentration (5×10^−5 M) is administered, the lumenal bath is exchanged three times with fresh drug-free KBR solution, and the resultant ISC measured after each wash for approximately 5 minutes in duration. […] All data from the voltage clamps are collected via a computer interface and analyzed off-line. Dose-effect relationships for all compounds are considered and analyzed by the Prism 3.0 program. IC50 values, maximal effective concentrations, and reversibility are calculated and compared to amiloride and benzamil as positive controls. […]

IC50: 13.2 nM
Compound: N=C(N)NCCCC[C@H](NC[C@H](O)[C@@H](O)[C@H](O)[C@H](O)CO)C(=O)NCCOc1ccc(CCCCNC(=N)NC(=O)c2nc(Cl)c(N)nc2N)cc1 [Compound I, 3,5-diamino-6-chloro-N—(N-(4-(4-(2-((S)-6-guanidino-2-((2S,3R,4R,5R)-2,3,4,5,6-pentahydroxyhexylamino)hexanamido)ethoxy)phenyl)butyl)carbamimidoyl)pyrazine-2-carboxamide]
